Results: the NIST ThermoML archive (doi:10.1016/j.tca.2006.01.020)

Experiment: molar heat capacity at constant pressure
Settings: 101.33 kPa, Crystal, Small (less than 1 g) adiabatic calorimetry

[Ba+2].[O-2].[O-2].[O-2].[Zr+4] [barium zirconium(IV) oxide]
Settings	molar heat capacity at constant pressure [J/K/mol]
1.659 K	0.00346
1.662 K	0.00357
1.664 K	0.00348
1.666 K	0.00351
1.671 K	0.00353
1.675 K	0.00351
1.677 K	0.00363
1.683 K	0.00349
1.689 K	0.00342
1.699 K	0.00335
1.722 K	0.00326
1.735 K	0.00341
1.744 K	0.00345
1.763 K	0.00333
2.098 K	0.00292
2.107 K	0.00345
2.124 K	0.00373
2.15 K	0.0036
2.163 K	0.00346
2.173 K	0.00343
2.185 K	0.00389
2.198 K	0.00355
2.209 K	0.00288
2.216 K	0.00344
2.228 K	0.00346
2.261 K	0.00391
2.281 K	0.0035
2.325 K	0.00371
2.372 K	0.0038
2.389 K	0.00365
2.42 K	0.00384
2.515 K	0.00414
2.651 K	0.00484
2.824 K	0.00516
2.831 K	0.00564
2.919 K	0.00559
2.952 K	0.00633
3.106 K	0.00618
3.116 K	0.00718
3.242 K	0.00714
3.366 K	0.00794
3.538 K	0.00865
3.656 K	0.00903
3.873 K	0.00964
3.987 K	0.0104
4.096 K	0.0108
4.199 K	0.0112
4.473 K	0.0129
4.617 K	0.0156
4.702 K	0.0156
4.777 K	0.0158
4.851 K	0.0176
4.929 K	0.0183
5.008 K	0.02
5.086 K	0.019
5.165 K	0.021
5.246 K	0.0226
5.329 K	0.0234
5.41 K	0.0243
5.489 K	0.0216
5.545 K	0.0289
5.64 K	0.0269
5.717 K	0.0288
5.79 K	0.0301
5.87 K	0.0306
5.93 K	0.0325
6.02 K	0.0336
6.08 K	0.0338
6.19 K	0.0357
6.27 K	0.0366
6.36 K	0.0388
6.45 K	0.0407
6.54 K	0.0424
6.62 K	0.044
6.72 K	0.0458
6.8 K	0.0494
6.9 K	0.0501
6.98 K	0.0511
7.08 K	0.0539
7.16 K	0.0547
7.26 K	0.0547
7.36 K	0.0593
7.47 K	0.0629
7.56 K	0.0638
7.67 K	0.0662
7.77 K	0.07
7.89 K	0.0767
7.98 K	0.076
8.1 K	0.0841
8.2 K	0.083
8.32 K	0.091
8.43 K	0.0913
8.55 K	0.101
8.67 K	0.102
8.8 K	0.112
8.91 K	0.111
9.05 K	0.127
9.12 K	0.121
9.26 K	0.138
9.33 K	0.13
9.47 K	0.148
9.6 K	0.144
9.75 K	0.163
9.88 K	0.159
10 K	0.168
10.01 K	0.17
10.18 K	0.188
10.31 K	0.186
10.47 K	0.208
10.6 K	0.205
10.76 K	0.228
10.94 K	0.235
11.09 K	0.245
11.27 K	0.27
11.45 K	0.278
11.62 K	0.29
11.8 K	0.317
12 K	0.341
12.15 K	0.34
12.35 K	0.385
12.54 K	0.383
12.72 K	0.416
12.92 K	0.449
13.12 K	0.466
13.32 K	0.5
13.53 K	0.54
13.73 K	0.561
13.93 K	0.599
14.13 K	0.628
14.34 K	0.692
14.54 K	0.702
14.75 K	0.772
14.97 K	0.803
15.18 K	0.858
15.39 K	0.892
15.59 K	0.951
15.81 K	1.02
16.03 K	1.06
16.24 K	1.13
16.46 K	1.2
16.68 K	1.25
16.9 K	1.32
17.12 K	1.4
17.34 K	1.46
17.56 K	1.54
17.79 K	1.63
18.03 K	1.72
18.26 K	1.77
18.47 K	1.87
18.69 K	1.97
18.92 K	2.07
19.15 K	2.15
19.38 K	2.27
19.62 K	2.37
19.86 K	2.44
20 K	2.564
20.07 K	2.59
20.32 K	2.69
20.56 K	2.75
20.77 K	2.91
21 K	3.03
21.25 K	3.1
21.47 K	3.28
21.71 K	3.37
21.95 K	3.48
22.17 K	3.66
22.41 K	3.78
22.67 K	3.87
22.9 K	3.98
23.11 K	4.17
23.34 K	4.32
23.59 K	4.41
23.83 K	4.56
24.06 K	4.76
24.31 K	4.87
24.56 K	4.97
24.78 K	5.12
25 K	5.34
25.24 K	5.49
25.5 K	5.6
25.74 K	5.74
25.96 K	5.93
26.19 K	6.12
26.44 K	6.29
26.7 K	6.36
26.94 K	6.51
27.15 K	6.76
27.39 K	6.91
27.68 K	6.91
27.72 K	7.04
28.07 K	7.4
28.32 K	7.57
28.59 K	7.63
28.82 K	7.79
29.03 K	8.03
29.26 K	8.25
30 K	8.651
30.07 K	8.73
